In the supplement of paper PMC11616607:

What was measured:
Test in all cases: drug sensitivity score (DSS) from 5-point dose-response viability curve (DSS (area-under-curve based score)); higher = more sensitive (stronger growth inhibition or killing); extreme values may be limits of the assay
Conditions in all cases: exposure time: 72 h; concentration range: 5 concentrations over 10,000-fold range
[1] = system: HOSE2C
In short: (§1)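 Viability of ovarian cancer and normal ovarian cell lines was read by CellTiter-Glo luminescence after 3 days at 37°C and 5% CO2 in 384-well plates holding 1,500 cells per well. Drugs had been dispensed in DMSO or water with an Echo 550 at five concentrations over a 10,000-fold range. Using Breeze software, a drug sensitivity score was assigned per cell line and drug, higher scores meaning more sensitive, and zero means no response.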

[2] = system: COV362
In short: as §1

[3] = system: Kuramochi
In short: as §1

[4] = system: OVCAR8
In short: as §1

[5] = system: Ovsaho
In short: as §1

[6] = system: OVCAR5
In short: as §1

[7] = system: HOSE1C
In short: as §1

[8] = system: JHOS2
In short: as §1

[9] = system: OV90
In short: as §1

[10] = system: CAOV3
In short: as §1

[11] = system: COV318
In short: as §1

[12] = system: OVCAR4
In short: as §1

Row | SMILES | drug sensitivity score [1] | drug sensitivity score [2] | drug sensitivity score [3] | drug sensitivity score [4] | drug sensitivity score [5] | drug sensitivity score [6] | drug sensitivity score [7] | drug sensitivity score [8] | drug sensitivity score [9] | drug sensitivity score [10] | drug sensitivity score [11] | drug sensitivity score [12]
1 | O=C(Nc1cnn2ccc(N3CCC[C@@H]3c3cc(F)ccc3F)nc12)N1CC[C@H](O)C1 [Larotrectinib] | 0 | 0 | 0 | 0 | 0 | 0 | 0 | 0 | 0 | 0 | 0 | 0
2 | FC(F)c1nc2ccccc2n1-c1nc(N2CCOCC2)nc(N2CCOCC2)n1 [ZSTK474] | 10.6 | 4.4 | 17.4 | 8.9 | 10.6 | 11 | 8.8 | 4 | 5.7 | 8 | 7.8 | 7.7
3 | CCC(C)n1ncn(-c2ccc(N3CCN(c4ccc(OCC5COC(Cn6cncn6)(c6ccc(Cl)cc6Cl)O5)cc4)CC3)cc2)c1=O (stereo not given) [Itraconazole] | 0 | 0.6 | 1.1 | 1.9 | 0.2 | 5.9 | 0 | 0.2 | 4.1 | 0 | 0.9 | 2.1
4 | Nc1nccc(-c2c(-c3ccc(F)cc3)ncn2C2CCCCC2)n1 | 0.9 | 0 | 0.1 | 0.7 | 0 | 1.9 | 1.6 | 0 | 0 | 1.7 | 0 | 0
5 | Cc1ccc(NS(=O)(=O)c2cccc(C#N)c2)c2[nH]cc(C#N)c12 [E7820] | 5 | 0 | 0.8 | 3.3 | 1.2 | 3.3 | 7.3 | 10.7 | 2.7 | 4.8 | 2.8 | 4.4
6 | COc1cccc2c1C(=O)c1c(O)c3c(c(O)c1C2=O)C[C@@](O)(C(C)=O)C[C@@H]3O[C@H]1C[C@H](N)[C@H](O)[C@H](C)O1 [Daunorubicin] | 10.9 | 3.6 | 4.2 | 10.8 | 7.9 | 8.2 | 11.5 | 6.2 | 5.3 | 9.4 | 1.7 | 3.2
7 | C[C@H]1C[C@@H]2[C@H]([C@@H](O)C[C@@]3(C)[C@H]2CC[C@]3(O)C(=O)CO)[C@@]2(C)C=CC(=O)C=C12 [Methylprednisolone] | 0 | 1.2 | 0 | 0.2 | 1 | 0 | 0 | 0.7 | 0 | 0 | 1.3 | 0
8 | COc1cc2c(Nc3ccc(Cl)c(Cl)c3F)ncnc2cc1OC[C@@H]1C[C@@H]2CN(C)C[C@@H]2C1 [Tesevatinib] | 0 | 0.9 | 1.2 | 1.3 | 2.2 | 5 | 1.6 | 0.1 | 0 | 8.4 | 0 | 1.6
9 | CC[C@@](C)(Nc1ccnc(-c2c[nH]c3ncccc23)n1)C(=O)NCC(F)(F)F [Decernotinib] | 0.6 | 0 | 0 | 0 | 0 | 0 | 0 | 0 | 0 | 0 | 0 | 0
10 | Cc1c(Cn2c(C)nc3c(C(=O)O)cc(N4CCOCC4)cc32)cccc1C(F)(F)F | 0 | 0 | 3.7 | 0 | 3.8 | 0 | 1.2 | 0 | 0 | 0 | 0 | 0
11 | CC(C)c1cc(C(=O)N2Cc3ccc(CN4CCN(C)CC4)cc3C2)c(O)cc1O [Onalespib] | 11.7 | 7.7 | 6.6 | 16.4 | 3.1 | 10.6 | 9.2 | 12.8 | 14.6 | 11.6 | 5 | 6.7
12 | CN1CCN(c2cc(C(=O)Nc3ccc4c(c3)-c3c(c(C(N)=O)nn3-c3ccc(F)cc3)CC4)c(Cl)cn2)CC1 [PHA 408] | 4.8 | 0.6 | 1.8 | 2.4 | 6.2 | 0.5 | 6.5 | 6.1 | 0.1 | 6 | 0.7 | 4.3
13 | CC/C(=C(\c1ccccc1)c1ccc(OCCN(C)C)cc1)c1ccccc1 [Tamoxifen] | 1.3 | 0.8 | 2.2 | 0.8 | 2.9 | 3.9 | 7.9 | 1 | 3.7 | 0.6 | 0.6 | 0.2
14 | O=C(O)c1ccc(-c2c[nH]c3ncc(-c4ccccc4)cc23)cc1C1CCCC1 | 1.2 | 0.1 | 0 | 0.3 | 0 | 1.4 | 0 | 0 | 1.2 | 2.3 | 0 | 0
15 | CCC/C=C/C=C/C(=O)O[C@H]1/C(=C/C(=O)OC)C[C@H]2C[C@H]([C@@H](C)O)OC(=O)C[C@H](O)C[C@@H]3C[C@H](OC(C)=O)C(C)(C)[C@](O)(C[C@@H]4C/C(=C/C(=O)OC)C[C@H](/C=C/C(C)(C)[C@]1(O)O2)O4)O3 [Bryostatin 1] | 1.6 | 8.9 | 0 | 0 | 0 | 0.2 | 10.3 | 0 | 1.4 | 0.1 | 1.4 | 1.1
